Data on 13 molecules can be found in patent publication US20260193264A1, “BENZOYPARAZINE PYRAZINES AND THEIR USES” (FOGHORN THERAPEUTICS INC., priority 2022, published 2026).

Test [1] has as its target T1, HiBit-BRG1 fusion protein in stable HeLa cell line expressing HiBit-BRG1 and LgBit (Homo sapiens, UniProt P51532).
T1 construct: expressed in transfected cells
The test is described as follows: HiBiT-BRG1 cell-based degradation assay (Nano-Glo HiBiT, 24 h). Conditions: HeLa HiBit-BRG1/LgBit cells; for DC50: read-out: BRMG1 HiBit Degradation IC50; for Dmax: top dose 30 μM, read-out: BRG1 HiBit Degradation Maximum (%). The method, boiled down:
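Degradation calculated from NanoBiT luminescence relative to DMSO-treated cells (high) and cells given 2 μM known BRM/BRG1 degrader (low). HeLa cells stably expressing HiBiT-BRG1 plus LgBiT were exposed to compound for 24 h before lytic HiBiT detection.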
(HiBiT is a short tag that completes a luciferase, so light tracks the accessible tagged protein.)

For test [2], the target named is T2, HiBiT-BRM fusion protein in stable HeLa cell line (Homo sapiens, UniProt P51531).
T2 construct: expressed in transfected cells
The test is described as follows: HiBiT-BRM cell-based degradation assay (Nano-Glo HiBiT Lytic Detection, 24 h). Also noted: DC50: scale not given here. Conditions: HeLa HiBiT-BRM cells; for DC50: read-out: BRM HiBit Degradation IC50; for BRM HiBit Degradation Maximum (%): top dose 30 μM. The method, boiled down:
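Percent degradation was scaled between DMSO-treated cells and cells given 2 μM of a known BRM/BRG1 degrader. Readout was NanoBiT luminescence after lytic detection. HeLa cells stably expressing HiBiT-BRM were dosed for 24 h, 10 points, 3-fold steps from 30 μM final, in duplicate.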

T2 sequence (P51531 whole entry, the tested form may be a part): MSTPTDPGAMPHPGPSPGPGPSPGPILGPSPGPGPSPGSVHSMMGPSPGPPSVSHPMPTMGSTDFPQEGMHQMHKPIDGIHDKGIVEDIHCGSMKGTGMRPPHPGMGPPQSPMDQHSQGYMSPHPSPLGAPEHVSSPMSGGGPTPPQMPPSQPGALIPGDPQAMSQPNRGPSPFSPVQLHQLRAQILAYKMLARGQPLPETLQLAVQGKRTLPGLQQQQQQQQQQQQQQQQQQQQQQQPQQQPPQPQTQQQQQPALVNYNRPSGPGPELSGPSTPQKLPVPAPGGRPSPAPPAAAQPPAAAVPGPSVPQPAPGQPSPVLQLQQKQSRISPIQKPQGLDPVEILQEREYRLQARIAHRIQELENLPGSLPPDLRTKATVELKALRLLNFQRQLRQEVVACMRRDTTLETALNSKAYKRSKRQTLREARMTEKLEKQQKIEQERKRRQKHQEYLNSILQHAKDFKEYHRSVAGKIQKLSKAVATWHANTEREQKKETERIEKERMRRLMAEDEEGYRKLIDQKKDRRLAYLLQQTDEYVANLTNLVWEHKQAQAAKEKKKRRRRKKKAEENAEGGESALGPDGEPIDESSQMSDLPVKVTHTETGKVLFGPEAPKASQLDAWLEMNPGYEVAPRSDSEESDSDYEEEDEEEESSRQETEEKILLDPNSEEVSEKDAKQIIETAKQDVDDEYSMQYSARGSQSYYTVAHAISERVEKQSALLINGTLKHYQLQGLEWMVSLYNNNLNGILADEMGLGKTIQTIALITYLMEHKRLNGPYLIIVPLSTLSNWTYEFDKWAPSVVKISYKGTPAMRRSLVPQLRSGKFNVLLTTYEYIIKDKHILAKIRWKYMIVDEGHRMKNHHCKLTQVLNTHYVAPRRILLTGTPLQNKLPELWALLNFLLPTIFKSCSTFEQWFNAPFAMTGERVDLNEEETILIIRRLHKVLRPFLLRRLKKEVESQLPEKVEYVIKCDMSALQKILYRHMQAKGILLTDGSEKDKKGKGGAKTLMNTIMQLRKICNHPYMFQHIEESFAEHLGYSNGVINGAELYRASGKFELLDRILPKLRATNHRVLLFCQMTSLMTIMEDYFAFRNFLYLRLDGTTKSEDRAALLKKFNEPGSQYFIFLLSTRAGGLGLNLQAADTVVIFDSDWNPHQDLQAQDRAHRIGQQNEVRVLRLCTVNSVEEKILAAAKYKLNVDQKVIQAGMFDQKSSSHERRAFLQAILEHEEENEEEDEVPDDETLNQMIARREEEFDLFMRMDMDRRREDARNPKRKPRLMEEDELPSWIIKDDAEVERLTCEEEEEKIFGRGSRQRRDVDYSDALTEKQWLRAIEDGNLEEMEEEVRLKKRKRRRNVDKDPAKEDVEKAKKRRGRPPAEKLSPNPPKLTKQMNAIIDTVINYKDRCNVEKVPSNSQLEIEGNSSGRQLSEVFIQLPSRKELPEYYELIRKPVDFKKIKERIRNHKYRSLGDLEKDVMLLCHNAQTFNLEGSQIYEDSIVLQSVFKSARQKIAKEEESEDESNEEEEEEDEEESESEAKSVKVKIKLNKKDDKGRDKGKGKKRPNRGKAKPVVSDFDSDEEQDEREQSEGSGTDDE
T1 sequence (P51532 whole entry, the tested form may be a part): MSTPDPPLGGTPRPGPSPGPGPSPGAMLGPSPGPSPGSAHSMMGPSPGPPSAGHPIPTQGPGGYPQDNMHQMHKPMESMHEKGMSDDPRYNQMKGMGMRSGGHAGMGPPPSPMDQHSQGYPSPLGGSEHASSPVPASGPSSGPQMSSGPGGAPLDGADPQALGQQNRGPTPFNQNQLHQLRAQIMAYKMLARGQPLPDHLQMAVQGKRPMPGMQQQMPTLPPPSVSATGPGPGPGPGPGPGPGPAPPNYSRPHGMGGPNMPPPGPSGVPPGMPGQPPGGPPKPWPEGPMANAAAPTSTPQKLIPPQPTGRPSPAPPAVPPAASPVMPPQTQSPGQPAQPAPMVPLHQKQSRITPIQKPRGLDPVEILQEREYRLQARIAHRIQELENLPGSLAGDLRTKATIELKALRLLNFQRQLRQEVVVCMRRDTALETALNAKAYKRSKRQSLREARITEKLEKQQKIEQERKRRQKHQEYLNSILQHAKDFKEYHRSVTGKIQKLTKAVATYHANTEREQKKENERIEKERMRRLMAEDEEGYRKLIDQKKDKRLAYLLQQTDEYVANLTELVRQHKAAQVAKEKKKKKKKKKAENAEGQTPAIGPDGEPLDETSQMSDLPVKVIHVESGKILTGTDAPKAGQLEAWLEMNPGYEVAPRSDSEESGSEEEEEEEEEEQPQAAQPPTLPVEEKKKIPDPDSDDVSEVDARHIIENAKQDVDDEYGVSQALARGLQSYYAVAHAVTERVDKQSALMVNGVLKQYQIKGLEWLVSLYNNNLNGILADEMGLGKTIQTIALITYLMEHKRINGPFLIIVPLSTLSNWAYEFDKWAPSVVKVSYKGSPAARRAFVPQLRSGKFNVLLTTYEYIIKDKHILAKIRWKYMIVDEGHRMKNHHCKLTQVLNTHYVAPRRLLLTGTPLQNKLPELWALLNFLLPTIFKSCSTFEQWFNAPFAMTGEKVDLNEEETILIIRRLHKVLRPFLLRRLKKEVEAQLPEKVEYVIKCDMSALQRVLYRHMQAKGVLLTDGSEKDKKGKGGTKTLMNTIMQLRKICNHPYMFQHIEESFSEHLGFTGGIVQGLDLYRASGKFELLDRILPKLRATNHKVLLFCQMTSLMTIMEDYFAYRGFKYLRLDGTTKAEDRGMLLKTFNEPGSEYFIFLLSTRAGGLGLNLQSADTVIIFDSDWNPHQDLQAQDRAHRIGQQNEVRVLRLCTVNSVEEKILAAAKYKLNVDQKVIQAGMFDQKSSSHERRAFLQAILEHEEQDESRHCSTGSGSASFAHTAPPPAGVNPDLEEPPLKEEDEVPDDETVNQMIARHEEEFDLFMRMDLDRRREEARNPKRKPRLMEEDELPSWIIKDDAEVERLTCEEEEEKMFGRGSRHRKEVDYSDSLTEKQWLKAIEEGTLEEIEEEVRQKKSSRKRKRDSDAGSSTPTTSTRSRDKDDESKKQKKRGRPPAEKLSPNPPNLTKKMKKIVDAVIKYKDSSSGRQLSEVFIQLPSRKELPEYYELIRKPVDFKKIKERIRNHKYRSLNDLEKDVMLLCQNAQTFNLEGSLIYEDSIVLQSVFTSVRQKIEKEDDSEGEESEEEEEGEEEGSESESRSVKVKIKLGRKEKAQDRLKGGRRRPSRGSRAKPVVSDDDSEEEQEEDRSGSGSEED

Take `Cc1ncsc1-c1ccc([C@H](C)NC(=O)[C@@H]2C[C@@H](O)CN2C(=O)[C@@H](c2cc(-c3ccnc(N4CCC(c5ccc6cc(-c7ccccc7O)nnc6c5)CC4)n3)no2)C(C)C)cc1` [Compound 52, (2S,4R)-4-hydroxy-1-((R)-2-(3-(2-(4-(3-(2-hydroxyphenyl)cinnolin-7-yl)piperidin-1-yl)pyrimidin-4-yl)isoxazol-5-yl)-3-methylbutanoyl)-N-((S)-1-(4-(4-methylthiazol-5-yl)phenyl)ethyl)pyrrolidine-2-carboxamide]: in test [1], the DC50 is over 10 nM and the Dmax was over 75%. Also, in test [2], the DC50 was under 10 nM and the “BRM HiBit Degradation Maximum (%)” value was “A (“A” indicates maximum degradation ≥75%)”.

With `Cc1ncsc1-c1ccc([C@H](C)NC(=O)[C@@H]2C[C@@H](O)CN2C(=O)[C@@H](c2cc(N3CCC4(CC3)CN(c3ccc5cc(-c6ccccc6O)nnc5c3)C4)no2)C(C)C)cc1` [Compound 53, (2S,4R)-4-hydroxy-1-((R)-2-(3-(2-(3-(2-hydroxyphenyl)cinnolin-7-yl)-2,7-diazaspiro[3.5]nonan-7-yl)isoxazol-5-yl)-3-methylbutanoyl)-N-((S)-1-(4-(4-methylthiazol-5-yl)phenyl)ethyl)pyrrolidine-2-carboxamide], in test [1], the DC50 was over 10 nM and the Dmax is over 50%. In addition, in test [2], the DC50 is under 10 nM and the “BRM HiBit Degradation Maximum (%)” value is recorded as “A (“A” indicates maximum degradation ≥75%)”.

Take `Cc1ncsc1-c1ccc([C@H](C)NC(=O)[C@@H]2C[C@@H](O)CN2C(=O)[C@@H](c2cc(N3CCN(c4ccc5cc(-c6ccccc6O)nnc5c4)CC3)no2)C(C)C)cc1` [Compound 54, (2S,4R)-4-hydroxy-1-((R)-2-(3-(4-(3-(2-hydroxyphenyl)cinnolin-7-yl)piperazin-1-yl)isoxazol-5-yl)-3-methylbutanoyl)-N-((S)-1-(4-(4-methylthiazol-5-yl)phenyl)ethyl)pyrrolidine-2-carboxamide]: in test [1], the Dmax was under 50%. For the same molecule, in test [2], the DC50 was over 10 nM and the “BRM HiBit Degradation Maximum (%)” value is reported as “B (“B” indicates maximum degradation ≥50%)”.

Consider `Cc1ncsc1-c1ccc([C@H](C)NC(=O)[C@@H]2C[C@@H](O)CN2C(=O)[C@@H](c2cc(N3CC[C@H](c4ccc5nnc(-c6ccccc6O)cc5c4)C3)no2)C(C)C)cc1` [Compound 55, (2S,4R)-4-hydroxy-1-((R)-2-(3-((R)-3-(3-(2-hydroxyphenyl)cinnolin-6-yl)pyrrolidin-1-yl)isoxazol-5-yl)-3-methylbutanoyl)-N-((S)-1-(4-(4-methylthiazol-5-yl)phenyl)ethyl)pyrrolidine-2-carboxamide], for which, in test [1], the Dmax is under 50%. In test [2], the DC50 was over 10 nM and the “BRM HiBit Degradation Maximum (%)” value is on record as “B (“B” indicates maximum degradation ≥50%)”.

Consider `Cc1ncsc1-c1ccc([C@H](C)NC(=O)[C@@H]2C[C@@H](O)CN2C(=O)[C@@H](c2cc(-c3cnc(N4CCC5(CC4)CC(c4ccc6nnc(-c7ccccc7O)cc6c4)C5)nc3)no2)C(C)C)cc1` [Compound 56, (2S,4R)-4-hydroxy-1-((R)-2-(3-(2-(2-(3-(2-hydroxyphenyl)cinnolin-6-yl)-7-azaspiro[3.5]nonan-7-yl)pyrimidin-5-yl)isoxazol-5-yl)-3-methylbutanoyl)-N-((S)-1-(4-(4-methylthiazol-5-yl)phenyl)ethyl)pyrrolidine-2-carboxamide], for which, in test [1], the DC50 was under 10 nM and the Dmax was over 75%. Besides, in test [2], the DC50 was under 10 nM and the “BRM HiBit Degradation Maximum (%)” value is given as “A (“A” indicates maximum degradation ≥75%)”.

`Cc1ncsc1-c1ccc([C@H](C)NC(=O)[C@@H]2C[C@@H](O)CN2C(=O)[C@@H](c2cc(N3CCN(c4ccc5nnc(-c6ccccc6O)cc5c4)CC3)no2)C(C)C)cc1` [Compound 57, (2S,4R)-4-hydroxy-1-((R)-2-(3-(4-(3-(2-hydroxyphenyl)cinnolin-6-yl)piperazin-1-yl)isoxazol-5-yl)-3-methylbutanoyl)-N-((S)-1-(4-(4-methylthiazol-5-yl)phenyl)ethyl)pyrrolidine-2-carboxamide]: in test [1], the DC50 is over 10 nM and the Dmax was over 75%. In addition, in test [2], the DC50 was under 10 nM and the “BRM HiBit Degradation Maximum (%)” value is given as “A (“A” indicates maximum degradation ≥75%)”.

`Cc1ncsc1-c1ccc([C@H](C)NC(=O)[C@@H]2C[C@@H](O)CN2C(=O)[C@@H](c2cc(N3CC[C@@H](c4ccc5cc(-c6ccccc6O)nnc5c4)C3)no2)C(C)C)cc1` [Compound 58, (2S,4R)-4-hydroxy-1-((R)-2-(3-((S)-3-(3-(2-hydroxyphenyl)cinnolin-7-yl)pyrrolidin-1-yl)isoxazol-5-yl)-3-methylbutanoyl)-N-((S)-1-(4-(4-methylthiazol-5-yl)phenyl)ethyl)pyrrolidine-2-carboxamide]: the Dmax in test [1] is under 50%. For the same molecule, in test [2], the DC50 is under 10 nM and the “BRM HiBit Degradation Maximum (%)” value was “A (“A” indicates maximum degradation ≥75%)”.

Take `Cc1ncsc1-c1ccc([C@H](C)NC(=O)[C@@H]2C[C@@H](O)CN2C(=O)[C@@H](c2cc(N3C[C@@H]4[C@H](C3)[C@H]4c3ccc4cc(-c5ccccc5O)nnc4c3)no2)C(C)C)cc1` [Compound 59, (2S,4R)-4-hydroxy-1-((R)-2-(3-((1R,5S,6S)-6-(3-(2-hydroxyphenyl)cinnolin-7-yl)-3-azabicyclo[3.1.0]hexan-3-yl)isoxazol-5-yl)-3-methylbutanoyl)-N-((S)-1-(4-(4-methylthiazol-5-yl)phenyl)ethyl)pyrrolidine-2-carboxamide]: the Dmax in test [1] was under 50%. In addition, in test [2], the DC50 is under 10 nM and the “BRM HiBit Degradation Maximum (%)” value is on record as “A (“A” indicates maximum degradation ≥75%)”.

As to `Cc1ncsc1-c1ccc([C@H](C)NC(=O)[C@@H]2C[C@@H](O)CN2C(=O)[C@@H](c2cc(N3CC[C@H](c4ccc5cc(-c6ccccc6O)nnc5c4)C3)no2)C(C)C)cc1` [Compound 60, (2S,4R)-4-hydroxy-1-((R)-2-(3-((R)-3-(3-(2-hydroxyphenyl)cinnolin-7-yl)pyrrolidin-1-yl)isoxazol-5-yl)-3-methylbutanoyl)-N-((S)-1-(4-(4-methylthiazol-5-yl)phenyl)ethyl)pyrrolidine-2-carboxamide], in test [1], the DC50 was under 10 nM and the Dmax was over 75%. Further, in test [2], the DC50 was under 10 nM and the “BRM HiBit Degradation Maximum (%)” value is “A (“A” indicates maximum degradation ≥75%)”.

On to `Cc1ncsc1-c1ccc([C@H](C)NC(=O)[C@@H]2C[C@@H](O)CN2C(=O)[C@@H](c2cc(N3CCC(c4ccc5nnc(-c6ccccc6O)cc5c4)CC3)no2)C(C)C)cc1` [Compound 61, (2S,4R)-4-hydroxy-1-((R)-2-(3-(4-(3-(2-hydroxyphenyl)cinnolin-6-yl)piperidin-1-yl)isoxazol-5-yl)-3-methylbutanoyl)-N-((S)-1-(4-(4-methylthiazol-5-yl)phenyl)ethyl)pyrrolidine-2-carboxamide], for which the Dmax in test [1] is under 50%. For the same molecule, in test [2], the DC50 is over 10 nM and the “BRM HiBit Degradation Maximum (%)” value is on record as “A (“A” indicates maximum degradation ≥75%)”.

Regarding `Cc1ncsc1-c1ccc([C@H](C)NC(=O)[C@@H]2C[C@@H](O)CN2C(=O)[C@@H](c2cc(N3CC4(CCC(c5ccc6nnc(-c7ccccc7O)cc6c5)CC4)C3)no2)C(C)C)cc1` [Compound 62, (2S,4R)-4-hydroxy-1-((R)-2-(3-(7-(3-(2-hydroxyphenyl)cinnolin-6-yl)-2-azaspiro[3.5]nonan-2-yl)isoxazol-5-yl)-3-methylbutanoyl)-N-((S)-1-(4-(4-methylthiazol-5-yl)phenyl)ethyl)pyrrolidine-2-carboxamide], in test [1], the DC50 was over 10 nM and the Dmax was over 75%. Also, in test [2], the DC50 was under 10 nM and the “BRM HiBit Degradation Maximum (%)” value was “A (“A” indicates maximum degradation ≥75%)”.

For `Cc1cc(-c2cc([C@H](C(=O)N3C[C@H](O)C[C@H]3C(=O)N[C@@H](C)c3ccc(-c4scnc4C)cc3)C(C)C)on2)cnc1N1CCC(c2ccc3nnc(-c4ccccc4O)cc3c2)CC1` [Compound 64, (2S,4R)-4-hydroxy-1-((R)-2-(3-(6-(4-(3-(2-hydroxyphenyl)cinnolin-6-yl)piperidin-1-yl)-5-methylpyridin-3-yl)isoxazol-5-yl)-3-methylbutanoyl)-N-((S)-1-(4-(4-methylthiazol-5-yl)phenyl)ethyl)pyrrolidine-2-carboxamide], in test [1], the DC50 was over 10 nM and the Dmax was over 50%. Also, in test [2], the DC50 is under 10 nM and the “BRM HiBit Degradation Maximum (%)” value is “A (“A” indicates maximum degradation ≥75%)”.

Consider `Cc1ncsc1-c1ccc([C@H](C)NC(=O)[C@@H]2C[C@@H](O)CN2C(=O)[C@@H](c2cc(N3CC4(CN(c5ccc6nnc(-c7ccccc7O)cc6c5)C4)C3)no2)C(C)C)cc1` [Compound 66, (2S,4R)-4-hydroxy-1-((R)-2-(3-(6-(3-(2-hydroxyphenyl)cinnolin-6-yl)-2,6-diazaspiro[3.3]heptan-2-yl)isoxazol-5-yl)-3-methylbutanoyl)-N-((S)-1-(4-(4-methylthiazol-5-yl)phenyl)ethyl)pyrrolidine-2-carboxamide], for which, in test [1], the Dmax was under 50%. Moreover, in test [2], the DC50 is under 10 nM and the “BRM HiBit Degradation Maximum (%)” value is “A (“A” indicates maximum degradation ≥75%)”.
